In patent publication US7026339B2, “Inhibitors of HCV NS5B polymerase” (priority 2003, dated 2006):

System: HuH-7 replicon cells 5–15 and 9–13 (HCV replication)
Assay: Inhibition of viral replication in HuH-7 replicon cells (HCV RNA / GAPDH RNA by multiplex RT-PCR)
Type: cell-based
Conditions: Hepatitis C virus, 72 h; inhibiting 50% of replication; HuH-7 replicon cells, 3 days; read-out: IC50
How it was run: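 Replicon cells seeded at 7×10^3 cells/well, grown 24 h, then exposed 3 days at 37 °C to compound at final 100 μM–1 μM (1% DMSO). Multiplex TaqMan RT-PCR on total RNA quantified HCV 5′-UTR and GAPDH RNA against a standard curve; HCV/GAPDH ratio reported as percent of untreated control.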

Structure (SMILES) | IC50
CN(c1ccccc1/C=N/NC(=O)Cc1ccccc1)S(=O)(=O)c1ccc(C(F)(F)F)cc1 [Compound 243, N-methyl-N-(2-{(E)-[(phenylacetyl)hydrazono]methyl}phenyl)-4-(trifluoromethyl)benzenesulfonamide] | < 5 µM
CN(c1ccccc1/C=N/NC(=O)Cc1cccc(Cl)c1)S(=O)(=O)c1ccc(C(F)(F)F)cc1 [Compound 244, N-[2-((E)-{[(3-chlorophenyl)acetyl]hydrazono}methyl)-phenyl]-N-methyl-4-(trifluoromethyl)benzenesulfonamide] | < 5 µM
CN(c1ccccc1/C=N/NC(=O)Cc1cccc(Br)c1)S(=O)(=O)c1ccc(C(F)(F)F)cc1 [Compound 245, N-[2-((E)-{[(3-bromophenyl)acetyl]hydrazono}methyl)-phenyl]-N-methyl-4-(trifluoromethyl)benzenesulfonamide] | < 5 µM
COc1ccc(CC(=O)N/N=C/c2ccccc2N(C)S(=O)(=O)c2ccc(C(F)(F)F)cc2)cc1OC [Compound 246, N-[2-((E)-{[(3,4-dimethoxyphenyl)acetyl]hydrazono}methyl)-phenyl]-N-methyl-4-(trifluoromethyl)benzenesuIfonamide] | < 5 µM
CN(c1ccccc1/C=N/NC(=O)Cc1cccnc1)S(=O)(=O)c1ccc(C(F)(F)F)cc1 [Compound 247, N-methyl-N-(2-{(E)-[(pyridin-3-ylacetyl)hydrazono]methyl}phenyl)-4-(trifluoromethyl)benzenesulfonamide] | < 5 µM
CN(c1ccccc1/C=N/NC(=O)Cc1ccc2c(c1)OCO2)S(=O)(=O)c1ccc(C(F)(F)F)cc1 [Compound 248, N-(2-{(E)-[(1,3-benzodioxol-5-ylacetyl)hydrazono]methyl}phenyl)-N-methyl-4-(trifluoromethyl)benzenesulfonamide] | < 5 µM
CN(c1ccccc1/C=N/NC(=O)Cc1c[nH]cn1)S(=O)(=O)c1ccc(C(F)(F)F)cc1 [Compound 249, N-(2-{(E)-[(1H-imidazol-4-ylacetyl)hydrazono]methyl}phenyl)-N-methyl-4-(trifluoromethyl)benzenesulfonamide] | < 5 µM
O=S(=O)(Cc1cccc(Cl)c1)N/N=C/c1ccccc1OS(=O)(=O)c1ccc(C(F)(F)F)cc1 [Compound 250, 2-((E)-[2-[(3-chlorobenzyl)sulfonyl]hydrazono}methyl)-phenyl 4-(trifluoromethyl)benzenesulfonate] | 5 to 50 µM
O=S(=O)(Cc1ccccc1)N/N=C/c1ccccc1OS(=O)(=O)c1ccc(C(F)(F)F)cc1 [Compound 251, 2-{(E)-[2-(benzylsulfonyl)hydrazono]methyl}phenyl4-(trifluoromethyl)benzenesulfonate] | 5 to 50 µM
O=S(=O)(Cc1ccc(C(F)(F)F)cc1)N/N=C/c1ccccc1OS(=O)(=O)c1ccc(C(F)(F)F)cc1 [Compound 252, 2-[(E)-(2-{[4-(trifluoromethyl)benzyl]sulfonyl}hydrazono)-methyl]phenyl 4-(trifluoromethyl)benzenesulfonate] | 5 to 50 µM
O=C(Cc1ccc2c(c1)OCO2)NC1CC1c1ccccc1OS(=O)(=O)c1ccc(C(F)(F)F)cc1 (centres unmarked) [Compound 253, 2-(2-{[2-(1,3-benzodioxol-5-yl)acetyl]amino}cyclopropyl)phenyl 4-(trifluoromethyl)benzenesulfonate] | > 50 µM
O=C(NCc1ccccn1)Nc1ccccc1OS(=O)(=O)c1ccc(C(F)(F)F)cc1 [Compound 254, 2-({[(pyridin-2-ylmethyl)amino]carbonyl}amino)phenyl 4-(trifluoromethyl)benzenesulfonate] | > 50 µM
O=S(=O)(N/N=C/c1ccccc1OS(=O)(=O)c1ccc(C(F)(F)F)cc1)c1ccccc1 [Compound 255, 2-{(E)-[2-(phenylsulfonyl)hydrazono]methyl}phenyl4-(trifluoromethyl)benzenesulfonate] | 5 to 50 µM
O=S(=O)(N/N=C/c1ccccc1OS(=O)(=O)c1ccc(C(F)(F)F)cc1)c1cccc2ccccc12 [Compound 256, 2-{(E)-[2-(1-naphthylsulfonyl)hydrazono]methyl}phenyl4-(trifluoromethyl)benzenesulfonate] | 5 to 50 µM
